Measured values published in ChEMBL document CHEMBL1149921 (Bioorg Med Chem Lett, 1996).

Experiments:
[1] = target: T1, Neprilysin (Rattus norvegicus) (UniProt P07861); assay: Compound was tested for inhibitory activity against neutral endopeptidase (NEP) at concentration 300 nM
T1 sequence (whole entry): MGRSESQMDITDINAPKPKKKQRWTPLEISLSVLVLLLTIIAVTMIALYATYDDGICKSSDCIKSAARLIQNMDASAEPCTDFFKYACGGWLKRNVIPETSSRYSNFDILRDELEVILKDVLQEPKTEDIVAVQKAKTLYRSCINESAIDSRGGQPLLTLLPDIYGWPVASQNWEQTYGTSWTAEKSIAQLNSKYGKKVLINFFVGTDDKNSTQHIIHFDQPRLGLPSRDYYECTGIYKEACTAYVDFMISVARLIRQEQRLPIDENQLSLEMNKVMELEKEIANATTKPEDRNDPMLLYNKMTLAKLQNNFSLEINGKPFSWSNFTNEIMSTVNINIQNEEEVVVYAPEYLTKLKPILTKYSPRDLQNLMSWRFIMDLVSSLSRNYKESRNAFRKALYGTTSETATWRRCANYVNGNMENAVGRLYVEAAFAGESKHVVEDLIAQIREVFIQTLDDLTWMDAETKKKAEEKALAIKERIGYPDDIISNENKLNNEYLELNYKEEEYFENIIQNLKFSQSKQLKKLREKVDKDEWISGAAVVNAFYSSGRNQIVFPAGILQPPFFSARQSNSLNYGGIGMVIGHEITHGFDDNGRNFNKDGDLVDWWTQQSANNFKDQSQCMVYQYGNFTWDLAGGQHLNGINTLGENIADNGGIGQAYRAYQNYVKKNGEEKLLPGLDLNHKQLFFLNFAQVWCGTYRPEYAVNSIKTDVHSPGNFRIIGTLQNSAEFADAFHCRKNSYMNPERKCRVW

Neprilysin [2] = target: T2, Neprilysin (Rattus norvegicus, UniProt P07861); assay: compound was tested for inhibitory activity against neutral endopeptidase (NEP)
T2 sequence (P07861 whole entry): T1 sequence (whole entry)

[3] = target: Neprilysin (Rattus norvegicus) (UniProt P07861); assay: Compound was tested for inhibitory activity against neutral endopeptidase (NEP) at concentration 10 nM
[4] = target: T1, Neprilysin (Rattus norvegicus); assay: Compound was tested for inhibitory activity against neutral endopeptidase (NEP) at concentration 1000 nM
Neprilysin [5] = target: T2, Neprilysin; assay: Compound was tested for inhibitory activity against neutral endopeptidase (NEP)
[6] = target: T3, Endothelin-converting enzyme 1 (Homo sapiens) (UniProt P42892); assay: Compound was tested for inhibitory activity against Endothelin-converting enzyme isolated from guinea pig lung membrane at concentration 10 nM; format: tissue-based; conditions: Cavia porcellus, target entry is the homologue from another species
T3 sequence (whole entry): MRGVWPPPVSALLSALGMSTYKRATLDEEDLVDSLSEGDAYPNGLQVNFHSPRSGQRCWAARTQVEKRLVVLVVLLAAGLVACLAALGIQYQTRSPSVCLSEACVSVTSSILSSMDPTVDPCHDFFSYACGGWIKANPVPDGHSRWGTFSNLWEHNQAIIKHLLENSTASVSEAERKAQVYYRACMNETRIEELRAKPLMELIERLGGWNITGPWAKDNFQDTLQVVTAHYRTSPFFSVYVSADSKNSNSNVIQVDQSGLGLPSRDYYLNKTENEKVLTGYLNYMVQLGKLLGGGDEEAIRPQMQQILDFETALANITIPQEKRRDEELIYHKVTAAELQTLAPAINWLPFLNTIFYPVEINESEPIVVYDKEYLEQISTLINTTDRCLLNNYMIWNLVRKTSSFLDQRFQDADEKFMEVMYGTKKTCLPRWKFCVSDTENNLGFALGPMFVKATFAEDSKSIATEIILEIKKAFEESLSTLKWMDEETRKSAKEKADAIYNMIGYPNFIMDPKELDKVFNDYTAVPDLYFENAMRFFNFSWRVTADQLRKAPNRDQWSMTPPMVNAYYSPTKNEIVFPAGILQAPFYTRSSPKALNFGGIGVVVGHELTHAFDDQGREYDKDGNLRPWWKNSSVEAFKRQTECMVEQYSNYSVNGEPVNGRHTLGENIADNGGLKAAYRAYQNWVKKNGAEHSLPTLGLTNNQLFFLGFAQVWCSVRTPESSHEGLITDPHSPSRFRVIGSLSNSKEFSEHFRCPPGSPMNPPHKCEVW

CC(C)CC(CP(=O)(O)C(Cc1ccc2ccccc2c1)NC(=O)[C@H](CCCCN)NS(C)(=O)=O)C(=O)N[C@@H](Cc1c[nH]c2ccccc12)C(=O)O (stereo not given in full)
inhibition [1]: 18%

CC(C)CC(CP(=O)(O)C(Cc1ccccc1)NC(=O)[C@H](CC(C)C)NC(=O)OCc1ccccc1)C(=O)N[C@@H](Cc1c[nH]c2ccccc12)C(=O)O (stereo not given in full)
inhibition [1]: 9%

CC(C)CC(CP(=O)(O)C(CC(C)C)NC(=O)[C@H](CCCCNC(=O)OCc1ccccc1)NS(C)(=O)=O)C(=O)N[C@@H](Cc1c[nH]c2ccccc12)C(=O)O (stereo not given in full)
IC50 (Neprilysin [2]): 0.32 µM

CC(C)C(CP(=O)(O)C(Cc1ccccc1)NC(=O)[C@H](CCCCNC(=O)OCc1ccccc1)NS(C)(=O)=O)C(=O)N[C@@H](Cc1c[nH]c2ccccc12)C(=O)O (stereo not given in full)
inhibition [1]: 19%

CC(C)CC(CP(=O)(O)C(N)Cc1ccccc1)C(=O)N[C@@H](Cc1c[nH]c2ccccc12)C(=O)O (stereo not given in full)
inhibition [3]: 31%

CC(C)C(CP(=O)(O)C(Cc1ccccc1)NC(=O)[C@H](CCCCN)NC(=O)OCc1ccccc1)C(=O)N[C@@H](Cc1c[nH]c2ccccc12)C(=O)O (stereo not given in full)
inhibition [4]: 0%

CC(C)CC(CP(=O)(O)C(Cc1ccc2ccccc2c1)NC(=O)[C@H](CCCCNC(=O)OCc1ccccc1)NS(C)(=O)=O)C(=O)N[C@@H](Cc1c[nH]c2ccccc12)C(=O)O (stereo not given in full)
inhibition [1]: 13%

CC(C)CC(NC(=O)[C@H](CCCCNC(=O)OCc1ccccc1)NS(C)(=O)=O)P(=O)(O)CC(C)C(=O)N[C@@H](Cc1c[nH]c2ccccc12)C(=O)O (stereo not given in full)
IC50 (Neprilysin [5]): 0.37 µM | inhibition [6]: 57%

CC(C)C(CP(=O)(O)C(Cc1ccccc1)NC(=O)[C@H](CCCCN)NS(C)(=O)=O)C(=O)N[C@@H](Cc1c[nH]c2ccccc12)C(=O)O (stereo not given in full)
IC50 (Neprilysin [2]): 0.8 µM
